Measurements published in ChEMBL document CHEMBL5370549, “Optimization and evaluation of pyridinyl vinyl sulfones as Nrf2 activator for the antioxidant and anti-inflammatory effects” (Eur J Med Chem, 2023).
Calls of active or inactive are those of the source. No cut-off for these calls is given here.

Columns and labels:
[1] = molecular target: T1, Nuclear factor erythroid 2-related factor 2 (Homo sapiens, UniProt Q16236); test: Activation of Nrf2 in human U2OS cells co-expressing Keap1 assessed as induction of Nrf2 nuclear translocation incubated for 6 hrs by PathHunter chemiluminescence based analysis; format: cell-based
T1 sequence (Q16236 whole entry): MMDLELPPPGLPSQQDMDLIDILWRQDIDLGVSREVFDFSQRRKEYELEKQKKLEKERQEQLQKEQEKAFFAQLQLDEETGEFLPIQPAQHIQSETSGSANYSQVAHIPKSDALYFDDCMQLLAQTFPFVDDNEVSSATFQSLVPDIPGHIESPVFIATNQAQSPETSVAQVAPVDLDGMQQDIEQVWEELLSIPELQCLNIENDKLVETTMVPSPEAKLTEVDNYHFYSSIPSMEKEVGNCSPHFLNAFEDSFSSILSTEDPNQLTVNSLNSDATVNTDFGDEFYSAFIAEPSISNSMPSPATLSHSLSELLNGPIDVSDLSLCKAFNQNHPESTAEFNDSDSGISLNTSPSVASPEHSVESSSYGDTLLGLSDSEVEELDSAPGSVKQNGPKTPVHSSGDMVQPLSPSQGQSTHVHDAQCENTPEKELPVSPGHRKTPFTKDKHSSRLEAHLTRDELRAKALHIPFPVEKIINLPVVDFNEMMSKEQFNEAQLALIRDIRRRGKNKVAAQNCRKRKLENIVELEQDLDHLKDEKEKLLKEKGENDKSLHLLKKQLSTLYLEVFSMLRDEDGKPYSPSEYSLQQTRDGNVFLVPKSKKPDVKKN

[2] = molecular target: CYP3A4 (Homo sapiens, UniProt P08684); test: Inhibition of CYP3A4 (unknown origin) assessed as enzyme activity at 10 uM relative to control; format: ADME; parameters: scale not given: the % may be the effect or the level left; details: read-out: Activity
Chain of CYP3A4 (P08684 whole entry): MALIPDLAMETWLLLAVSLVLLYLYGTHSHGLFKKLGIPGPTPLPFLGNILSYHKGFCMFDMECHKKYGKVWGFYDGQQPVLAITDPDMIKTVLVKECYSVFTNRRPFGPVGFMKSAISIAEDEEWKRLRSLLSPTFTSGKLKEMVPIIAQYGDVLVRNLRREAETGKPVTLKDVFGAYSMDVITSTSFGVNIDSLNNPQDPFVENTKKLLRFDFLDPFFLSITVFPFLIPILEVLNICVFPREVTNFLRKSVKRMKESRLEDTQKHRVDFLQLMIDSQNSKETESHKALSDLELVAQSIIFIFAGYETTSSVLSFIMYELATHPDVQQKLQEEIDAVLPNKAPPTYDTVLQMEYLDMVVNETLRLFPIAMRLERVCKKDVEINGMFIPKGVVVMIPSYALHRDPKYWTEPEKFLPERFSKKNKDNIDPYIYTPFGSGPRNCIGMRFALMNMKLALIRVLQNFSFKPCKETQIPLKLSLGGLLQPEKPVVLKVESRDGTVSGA

[3] = molecular target: CYP2C9 (Homo sapiens, UniProt P11712); test: Inhibition of CYP2C9 (unknown origin) assessed as enzyme activity at 10 uM relative to control; format: ADME; parameters: scale not given: the % may be the effect or the level left; details: read-out: Activity
Chain of CYP2C9 (P11712 whole entry): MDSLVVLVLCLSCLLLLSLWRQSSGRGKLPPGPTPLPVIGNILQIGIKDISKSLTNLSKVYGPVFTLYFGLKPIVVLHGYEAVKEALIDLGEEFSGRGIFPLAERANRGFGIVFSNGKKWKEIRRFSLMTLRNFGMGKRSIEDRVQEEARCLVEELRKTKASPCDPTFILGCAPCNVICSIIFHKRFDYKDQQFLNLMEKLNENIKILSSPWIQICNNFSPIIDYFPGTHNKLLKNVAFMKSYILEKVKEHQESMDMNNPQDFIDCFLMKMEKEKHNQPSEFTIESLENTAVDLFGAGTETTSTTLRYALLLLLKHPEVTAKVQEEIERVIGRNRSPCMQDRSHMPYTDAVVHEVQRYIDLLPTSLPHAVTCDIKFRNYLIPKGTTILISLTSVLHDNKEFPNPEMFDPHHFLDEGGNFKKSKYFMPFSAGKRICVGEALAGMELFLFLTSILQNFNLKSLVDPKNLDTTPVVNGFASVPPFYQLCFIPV

[4] = molecular target: CYP2D6 (Homo sapiens, UniProt P10635); test: Inhibition of CYP2D6 (unknown origin) assessed as enzyme activity at 10 uM relative to control; format: ADME; parameters: scale not given: the % may be the effect or the level left; details: read-out: Activity
Chain of CYP2D6 (P10635 whole entry): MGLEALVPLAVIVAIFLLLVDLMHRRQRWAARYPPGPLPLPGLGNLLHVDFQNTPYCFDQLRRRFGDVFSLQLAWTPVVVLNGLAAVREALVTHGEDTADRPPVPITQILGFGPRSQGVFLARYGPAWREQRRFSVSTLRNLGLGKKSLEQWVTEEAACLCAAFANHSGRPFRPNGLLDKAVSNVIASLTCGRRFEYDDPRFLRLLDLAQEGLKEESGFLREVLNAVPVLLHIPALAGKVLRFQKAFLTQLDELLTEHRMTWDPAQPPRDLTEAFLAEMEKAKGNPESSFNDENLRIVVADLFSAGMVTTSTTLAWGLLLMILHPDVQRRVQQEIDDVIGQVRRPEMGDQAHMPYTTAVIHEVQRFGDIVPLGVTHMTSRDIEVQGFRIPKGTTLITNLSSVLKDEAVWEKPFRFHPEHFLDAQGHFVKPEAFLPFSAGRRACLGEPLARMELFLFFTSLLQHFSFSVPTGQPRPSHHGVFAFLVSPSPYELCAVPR

[5] = Metabolic stability of the compound in human plasma assessed as parent compound remaining measured after 30 mins; format: ADME, cell-free; details: read-out: Stability
[6] = Metabolic stability of the compound in rat plasma assessed as parent compound remaining measured after 30 mins; format: ADME, cell-free; details: read-out: Stability
[7] = molecular target: T2, Nuclear factor erythroid 2-related factor 2 (Mus musculus) (UniProt Q60795); test: Activation of Nrf2 in mouse BV-2 cells assessed as increase in Nrf2 level in whole cell lysates at 3 uM measured after 3 hrs by immunoblot analysis; format: subcellular; details: filed as activator
T2 sequence (whole entry): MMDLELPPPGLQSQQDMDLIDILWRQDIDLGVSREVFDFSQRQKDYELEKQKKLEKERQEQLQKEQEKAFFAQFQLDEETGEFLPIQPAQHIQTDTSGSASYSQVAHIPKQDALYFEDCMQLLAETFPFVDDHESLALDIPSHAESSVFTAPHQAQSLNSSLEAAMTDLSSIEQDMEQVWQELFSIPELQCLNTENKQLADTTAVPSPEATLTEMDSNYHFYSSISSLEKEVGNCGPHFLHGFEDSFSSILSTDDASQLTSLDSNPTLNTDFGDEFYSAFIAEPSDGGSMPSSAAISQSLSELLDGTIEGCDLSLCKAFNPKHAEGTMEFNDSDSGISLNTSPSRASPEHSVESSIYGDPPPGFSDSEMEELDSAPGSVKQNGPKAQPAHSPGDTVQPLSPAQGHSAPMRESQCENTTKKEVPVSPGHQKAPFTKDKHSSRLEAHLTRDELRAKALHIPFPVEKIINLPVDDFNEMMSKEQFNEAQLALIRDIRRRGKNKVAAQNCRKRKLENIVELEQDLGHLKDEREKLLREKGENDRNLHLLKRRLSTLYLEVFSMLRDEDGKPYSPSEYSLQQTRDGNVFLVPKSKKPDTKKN

[8] = molecular target: T2, Nuclear factor erythroid 2-related factor 2 (Mus musculus); test: Activation of Nrf2 in mouse BV-2 cells assessed as increase in Nrf2 nuclear translocation at 3 uM measured upto 9 hrs by immunoblot analysis relative to control; format: subcellular; details: Nucleus
[9] = molecular target: T2, Nuclear factor erythroid 2-related factor 2 (Mus musculus); test: Activation of Nrf2 in mouse BV-2 cells assessed as increase in HO-1 mRNA expression incubated for 3 hrs by qRT-PCR analysis; format: cell-based; details: filed as activator, dose 0.01-3 µM
[10] = molecular target: T2, Nuclear factor erythroid 2-related factor 2 (Mus musculus); test: Activation of Nrf2 in mouse BV-2 cells assessed as increase in GCLM protein expression at 3 uM measured after 12 hrs by immunoblot analysis; format: cell-based; details: filed as activator
[11] = molecular target: T2, Nuclear factor erythroid 2-related factor 2 (Mus musculus); test: Activation of Nrf2 in mouse BV-2 cells assessed as increase in HO-1 protein expression measured after 9 hrs by immunoblot analysis; format: cell-based; details: filed as activator, dose 0.01-3 µM
[12] = molecular target: T2, Nuclear factor erythroid 2-related factor 2 (Mus musculus); test: Activation of Nrf2 in mouse BV-2 cells assessed as increase in GCLM protein expression measured after 12 hrs by immunoblot analysis; format: cell-based; details: filed as activator, dose 0.01-3 µM
[13] = system: BV-2; test: Antiinflammatory activity against LPS-induced mouse BV-2 cells assessed as inhibition of iNOS protein expression pretreated for 6 hrs followed by LPS stimulation for 24 hrs by immunoblot analysis; format: functional, cell-based; details: dose 0.001-1 µM, time 30.0 hrs
[14] = system: BV-2; test: Antiinflammatory activity against LPS-induced mouse BV-2 cells assessed as inhibition of IL-1 beta mRNA expression at 0.1 to 3 uM pretreated for 6 hrs followed by LPS stimulation for 6 hrs by qRT-PCR analysis; format: functional, cell-based; details: dose 0.1-3 µM, time 12.0 hrs
[15] = system: BV-2; test: Antiinflammatory activity against LPS-induced mouse BV-2 cells assessed as inhibition of IL-6 mRNA expression at 0.03 to 3 uM pretreated for 6 hrs followed by LPS stimulation for 6 hrs by qRT-PCR analysis; format: functional, cell-based; details: dose 0.03-3 µM, time 12.0 hrs
[16] = system: BV-2; test: Antiinflammatory activity against LPS-induced mouse BV-2 cells assessed as inhibition of IL-6 production at 0.1 to 3 uM pretreated for 6 hrs followed by LPS stimulation for 24 hrs by ELISA; format: functional, cell-based; details: dose 0.1-3 µM, time 30.0 hrs
[17] = system: Mus musculus; test: Cognitive enhancing activity against LPS-induced neuroinflammation C57BL/6N mouse model assessed as […] memory improvement by measuring delayed step-through latency at 20 mg/kg/day, po administered for 3 days followed by LPS administration for 7 days by passive avoidance test; format: functional, organism-based; details: time 10.0 day
[18] = system: Mus musculus; test: (§1) Antiinflammatory activity against LPS-induced neuroinflammation C57BL/6N mouse model assessed as reduction of glial cell reactivity by measuring reduction in GFAP expression in hippocampus CA1 region at 20 mg/kg/day, po administered for 3 days followed by LPS administration for 7 days by immunofluorescence staining based analysis; format: functional, organism-based; details: time 10.0 day
[19] = system: Mus musculus; test: as §1, with “IBA1” for “GFAP”, “CA3” for “CA1”; format: functional, organism-based; details: time 10.0 day
[20] = system: Mus musculus; test: as §1, with “IBA1” for “GFAP”, “cortex” for “hippocampus CA1 region”; format: functional, organism-based; details: time 10.0 day
[21] = system: Mus musculus; test: Antiinflammatory activity against LPS-induced neuroinflammation C57BL/6N mouse model assessed as inhibition of IL-6 production in plasma at 20 mg/kg/day, po administered for 3 days followed by LPS administration for 7 days by ELISA; format: functional, organism-based; details: time 10.0 day

- EC50 [1]: 37 nM
- activity at 10 µM [2]: 77.1%
- activity at 10 µM [3]: > 99%
- activity at 10 µM [4]: > 99%
- remaining at 0.5 h [5]: 92.8%
- remaining at 0.5 h [6]: 74.4%
- Activity [7]: Active
- fold change (FC) [8]: > 7
- Activity [9]: Dose-Dependent Effect
- Activity [10]: Active
- Activity [11]: Dose-Dependent Effect
- Activity [12]: Dose-Dependent Effect
Compound: COc1cccnc1S(=O)(=O)/C=C/c1ncccc1Cl
- Activity [13]: Dose-Dependent Effect
- Activity [14]: Active
- Activity [15]: Active
- Activity [16]: Active
- Activity [17]: Active
- Activity [18]: Active
- Activity [19]: Active
- Activity [20]: Active
- Activity [21]: Active
